Measured values from patent US12227500B2, “Substituted pyrrolo[2,3-b]pyridines for suppressing toxic endoplasmic reticulum stress” (THE TRUSTEES OF COLUMBIA UNIVERSITY IN THE CITY OF NEW YORK, priority 2018, dated 2025).

Assays:
Assay in all cases: Radiolabeled ATP kinase assay, panel of 60 kinases (Table S5)
Type in all cases: biochemical
[1] = molecular target: T1, panel of 60 human kinases (Homo sapiens, UniProt Q15759); settings: P38b/MAPK11; 0.1 μM; 10 μM ATP; read-out: % Enzyme Activity (relative to DSMO controls)
T1 construct: purchased Reaction Biology Corp
Summary of the method: (§1)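 Cell-free radiolabeled-ATP kinase assays across a panel of 60 kinases; each compound tested at 0.1 μM and 0.5 μM for inhibition.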

[2] = molecular target: T2, panel of 60 human kinases (Homo sapiens, UniProt P22607); settings: FGFR3; 0.1 μM; 10 μM ATP; read-out: % Enzyme Activity (relative to DSMO controls)
T2 construct: purchased Reaction Biology Corp
Summary of the method: as §1

[3] = molecular target: T3, panel of 60 human kinases (Homo sapiens, UniProt P11362); settings: FGFR1; 0.1 μM; 10 μM ATP; read-out: % Enzyme Activity (relative to DSMO controls)
T3 construct: purchased Reaction Biology Corp
Summary of the method: as §1

[4] = molecular target: T4, panel of 60 human kinases (Homo sapiens, UniProt O94806); settings: PKCnu/PRKD3; 0.1 μM; 10 μM ATP; read-out: % Enzyme Activity (relative to DSMO controls)
T4 construct: purchased Reaction Biology Corp
T4 sequence (O94806 1-890): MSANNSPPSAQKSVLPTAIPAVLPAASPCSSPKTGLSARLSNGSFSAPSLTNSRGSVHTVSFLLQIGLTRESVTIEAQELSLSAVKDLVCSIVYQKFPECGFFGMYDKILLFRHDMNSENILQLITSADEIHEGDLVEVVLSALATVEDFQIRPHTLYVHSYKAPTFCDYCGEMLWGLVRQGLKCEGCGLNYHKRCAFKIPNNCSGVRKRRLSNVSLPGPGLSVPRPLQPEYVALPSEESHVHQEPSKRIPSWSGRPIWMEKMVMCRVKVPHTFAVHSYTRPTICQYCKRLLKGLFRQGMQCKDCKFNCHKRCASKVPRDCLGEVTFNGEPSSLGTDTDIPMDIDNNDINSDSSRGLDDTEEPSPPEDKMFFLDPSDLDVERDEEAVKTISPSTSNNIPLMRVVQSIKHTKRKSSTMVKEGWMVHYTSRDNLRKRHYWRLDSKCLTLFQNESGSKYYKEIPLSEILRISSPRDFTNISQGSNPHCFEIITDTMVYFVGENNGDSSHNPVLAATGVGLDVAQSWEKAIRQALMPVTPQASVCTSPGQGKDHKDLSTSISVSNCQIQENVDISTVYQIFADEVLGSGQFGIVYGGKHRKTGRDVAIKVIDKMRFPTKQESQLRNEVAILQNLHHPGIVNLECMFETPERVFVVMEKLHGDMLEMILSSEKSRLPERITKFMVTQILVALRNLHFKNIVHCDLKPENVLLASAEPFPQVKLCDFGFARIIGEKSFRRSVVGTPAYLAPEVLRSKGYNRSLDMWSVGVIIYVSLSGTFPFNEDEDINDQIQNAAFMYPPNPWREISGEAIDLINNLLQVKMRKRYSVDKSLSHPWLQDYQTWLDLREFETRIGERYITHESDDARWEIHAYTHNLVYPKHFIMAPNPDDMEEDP
Summary of the method: as §1

[5] = molecular target: T5, panel of 60 human kinases (Homo sapiens, UniProt Q00526); settings: CDK3/cyclin E; 0.1 μM; 10 μM ATP; read-out: % Enzyme Activity (relative to DSMO controls)
T5 construct: purchased Reaction Biology Corp
Summary of the method: as §1

[6] = molecular target: T6, panel of 60 human kinases (Homo sapiens, UniProt P53778); settings: P38g; 0.1 μM; 10 μM ATP; read-out: % Enzyme Activity (relative to DSMO controls)
T6 construct: purchased Reaction Biology Corp
T6 sequence (P53778 1-367): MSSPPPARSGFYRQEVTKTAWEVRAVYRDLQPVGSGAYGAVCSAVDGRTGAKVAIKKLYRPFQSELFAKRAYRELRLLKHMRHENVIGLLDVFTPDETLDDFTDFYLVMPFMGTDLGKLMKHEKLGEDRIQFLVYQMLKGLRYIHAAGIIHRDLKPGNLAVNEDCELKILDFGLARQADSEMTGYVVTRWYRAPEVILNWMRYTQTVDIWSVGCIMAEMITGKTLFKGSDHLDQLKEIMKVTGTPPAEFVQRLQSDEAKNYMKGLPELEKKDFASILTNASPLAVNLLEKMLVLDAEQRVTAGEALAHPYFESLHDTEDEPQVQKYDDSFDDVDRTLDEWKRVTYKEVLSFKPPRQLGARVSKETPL
Summary of the method: as §1

[7] = molecular target: T7, panel of 60 human kinases (Homo sapiens, UniProt O94921); settings: CDK14/cyclin Y (PFTK1); 0.1 μM; 10 μM ATP; read-out: % Enzyme Activity (relative to DSMO controls)
T7 construct: purchased Reaction Biology Corp
Summary of the method: as §1

[8] = molecular target: T8, panel of 60 human kinases (Homo sapiens, UniProt P53779); settings: JNK3; 0.1 μM; 10 μM ATP; read-out: % Enzyme Activity (relative to DSMO controls)
T8 construct: purchased Reaction Biology Corp
Summary of the method: as §1

[9] = molecular target: T9, panel of 60 human kinases (Homo sapiens, UniProt O15264); settings: P38d/MAPK13; 0.1 μM; 10 μM ATP; read-out: % Enzyme Activity (relative to DSMO controls)
T9 construct: purchased Reaction Biology Corp
T9 sequence (O15264 1-365): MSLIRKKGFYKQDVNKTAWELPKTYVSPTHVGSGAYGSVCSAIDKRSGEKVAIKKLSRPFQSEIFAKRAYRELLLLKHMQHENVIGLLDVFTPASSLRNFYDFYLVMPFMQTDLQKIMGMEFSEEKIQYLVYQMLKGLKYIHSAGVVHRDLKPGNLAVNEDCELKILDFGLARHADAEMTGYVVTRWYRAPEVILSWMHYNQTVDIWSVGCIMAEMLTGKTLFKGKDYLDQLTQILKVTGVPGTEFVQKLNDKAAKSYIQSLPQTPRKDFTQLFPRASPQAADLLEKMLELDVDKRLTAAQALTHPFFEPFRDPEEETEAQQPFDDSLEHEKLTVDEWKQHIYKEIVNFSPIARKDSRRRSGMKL
Summary of the method: as §1

[10] = molecular target: T10, panel of 60 human kinases (Homo sapiens, UniProt Q16288); settings: TRKC; 0.1 μM; 10 μM ATP; read-out: % Enzyme Activity (relative to DSMO controls)
T10 construct: purchased Reaction Biology Corp
Summary of the method: as §1

[11] = molecular target: T11, panel of 60 human kinases (Homo sapiens, UniProt Q16539); settings: P38a/MAPK14; 0.1 μM; 10 μM ATP; read-out: % Enzyme Activity (relative to DSMO controls)
T11 construct: purchased Reaction Biology Corp
Summary of the method: as §1

T11 sequence (Q16539 whole entry): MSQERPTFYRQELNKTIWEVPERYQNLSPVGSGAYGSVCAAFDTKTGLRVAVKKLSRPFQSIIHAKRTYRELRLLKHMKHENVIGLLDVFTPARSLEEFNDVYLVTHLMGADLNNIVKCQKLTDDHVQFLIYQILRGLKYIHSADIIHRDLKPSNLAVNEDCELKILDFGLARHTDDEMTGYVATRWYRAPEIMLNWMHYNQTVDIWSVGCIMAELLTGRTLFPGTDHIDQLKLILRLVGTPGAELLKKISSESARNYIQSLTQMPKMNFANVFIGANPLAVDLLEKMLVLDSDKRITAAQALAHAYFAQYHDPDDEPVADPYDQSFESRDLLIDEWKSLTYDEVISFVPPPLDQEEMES
T7 sequence (O94921 whole entry): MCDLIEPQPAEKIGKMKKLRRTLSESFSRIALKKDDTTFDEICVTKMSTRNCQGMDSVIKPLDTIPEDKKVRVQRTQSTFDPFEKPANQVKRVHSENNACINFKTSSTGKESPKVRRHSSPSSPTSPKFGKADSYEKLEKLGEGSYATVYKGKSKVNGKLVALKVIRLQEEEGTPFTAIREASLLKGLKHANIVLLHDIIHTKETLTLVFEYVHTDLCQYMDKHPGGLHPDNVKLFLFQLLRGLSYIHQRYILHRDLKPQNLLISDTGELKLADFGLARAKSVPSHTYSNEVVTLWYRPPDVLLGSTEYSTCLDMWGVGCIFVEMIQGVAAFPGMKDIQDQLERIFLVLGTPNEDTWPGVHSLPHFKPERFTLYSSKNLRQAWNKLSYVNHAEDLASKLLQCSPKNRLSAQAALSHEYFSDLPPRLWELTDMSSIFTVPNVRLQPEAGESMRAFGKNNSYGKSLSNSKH
T1 sequence (Q15759 whole entry): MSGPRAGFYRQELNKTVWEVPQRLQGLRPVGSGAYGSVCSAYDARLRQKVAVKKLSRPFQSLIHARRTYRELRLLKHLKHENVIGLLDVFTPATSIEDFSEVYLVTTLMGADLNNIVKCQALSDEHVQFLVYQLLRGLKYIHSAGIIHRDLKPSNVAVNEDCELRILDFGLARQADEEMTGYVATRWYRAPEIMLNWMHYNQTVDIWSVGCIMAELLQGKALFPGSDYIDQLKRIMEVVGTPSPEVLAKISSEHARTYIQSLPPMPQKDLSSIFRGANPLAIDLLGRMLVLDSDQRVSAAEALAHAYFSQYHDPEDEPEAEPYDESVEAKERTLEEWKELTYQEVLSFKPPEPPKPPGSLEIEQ
T5 sequence (Q00526 whole entry): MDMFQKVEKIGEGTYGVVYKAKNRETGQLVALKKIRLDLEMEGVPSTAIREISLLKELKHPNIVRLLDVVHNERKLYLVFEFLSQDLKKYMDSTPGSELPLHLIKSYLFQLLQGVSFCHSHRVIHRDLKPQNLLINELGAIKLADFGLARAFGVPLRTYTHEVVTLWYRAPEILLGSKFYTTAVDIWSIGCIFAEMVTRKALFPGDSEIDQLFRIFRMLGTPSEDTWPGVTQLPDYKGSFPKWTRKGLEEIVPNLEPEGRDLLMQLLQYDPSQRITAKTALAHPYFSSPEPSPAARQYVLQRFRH
T10 sequence (Q16288 32-839): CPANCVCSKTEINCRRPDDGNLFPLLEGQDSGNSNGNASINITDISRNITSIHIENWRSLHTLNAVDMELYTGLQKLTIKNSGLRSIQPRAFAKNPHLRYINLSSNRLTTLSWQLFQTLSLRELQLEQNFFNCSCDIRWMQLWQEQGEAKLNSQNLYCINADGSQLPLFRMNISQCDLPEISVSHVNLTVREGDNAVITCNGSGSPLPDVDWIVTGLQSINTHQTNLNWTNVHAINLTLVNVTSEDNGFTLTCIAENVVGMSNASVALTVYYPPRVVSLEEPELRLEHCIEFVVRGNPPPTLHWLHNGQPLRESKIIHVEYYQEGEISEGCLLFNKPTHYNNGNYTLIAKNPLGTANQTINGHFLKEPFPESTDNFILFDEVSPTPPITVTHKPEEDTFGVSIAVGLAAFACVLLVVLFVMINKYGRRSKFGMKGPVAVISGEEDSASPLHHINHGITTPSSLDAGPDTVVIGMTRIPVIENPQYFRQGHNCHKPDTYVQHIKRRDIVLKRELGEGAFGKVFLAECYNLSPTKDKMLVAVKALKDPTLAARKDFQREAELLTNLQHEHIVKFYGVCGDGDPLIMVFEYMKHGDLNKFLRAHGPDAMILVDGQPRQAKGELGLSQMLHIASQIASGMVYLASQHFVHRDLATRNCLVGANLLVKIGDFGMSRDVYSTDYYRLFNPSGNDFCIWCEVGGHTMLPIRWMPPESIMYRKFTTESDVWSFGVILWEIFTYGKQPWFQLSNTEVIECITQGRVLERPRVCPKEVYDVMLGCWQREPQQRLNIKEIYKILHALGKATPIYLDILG
T3 sequence (P11362 22-822): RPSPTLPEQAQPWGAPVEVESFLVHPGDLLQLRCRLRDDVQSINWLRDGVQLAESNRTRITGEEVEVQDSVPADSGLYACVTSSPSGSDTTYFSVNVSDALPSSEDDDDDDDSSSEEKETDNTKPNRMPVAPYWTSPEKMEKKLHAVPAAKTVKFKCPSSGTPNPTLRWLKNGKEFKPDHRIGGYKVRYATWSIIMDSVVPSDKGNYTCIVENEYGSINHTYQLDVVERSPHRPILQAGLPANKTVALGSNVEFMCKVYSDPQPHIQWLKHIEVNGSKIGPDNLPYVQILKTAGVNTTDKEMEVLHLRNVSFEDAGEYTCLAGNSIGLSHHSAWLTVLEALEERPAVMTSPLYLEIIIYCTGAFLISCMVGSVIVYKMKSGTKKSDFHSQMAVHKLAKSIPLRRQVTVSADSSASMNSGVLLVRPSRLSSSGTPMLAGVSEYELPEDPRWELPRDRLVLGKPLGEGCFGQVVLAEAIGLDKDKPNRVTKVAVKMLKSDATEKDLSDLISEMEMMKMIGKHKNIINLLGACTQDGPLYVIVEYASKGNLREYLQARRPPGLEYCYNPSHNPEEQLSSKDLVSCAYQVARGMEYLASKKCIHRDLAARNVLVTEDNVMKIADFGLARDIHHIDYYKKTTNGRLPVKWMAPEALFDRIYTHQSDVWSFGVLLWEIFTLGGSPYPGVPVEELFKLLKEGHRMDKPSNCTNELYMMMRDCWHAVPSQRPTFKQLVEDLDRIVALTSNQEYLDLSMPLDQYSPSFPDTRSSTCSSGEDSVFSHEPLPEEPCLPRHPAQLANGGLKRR
T2 sequence (P22607 23-806): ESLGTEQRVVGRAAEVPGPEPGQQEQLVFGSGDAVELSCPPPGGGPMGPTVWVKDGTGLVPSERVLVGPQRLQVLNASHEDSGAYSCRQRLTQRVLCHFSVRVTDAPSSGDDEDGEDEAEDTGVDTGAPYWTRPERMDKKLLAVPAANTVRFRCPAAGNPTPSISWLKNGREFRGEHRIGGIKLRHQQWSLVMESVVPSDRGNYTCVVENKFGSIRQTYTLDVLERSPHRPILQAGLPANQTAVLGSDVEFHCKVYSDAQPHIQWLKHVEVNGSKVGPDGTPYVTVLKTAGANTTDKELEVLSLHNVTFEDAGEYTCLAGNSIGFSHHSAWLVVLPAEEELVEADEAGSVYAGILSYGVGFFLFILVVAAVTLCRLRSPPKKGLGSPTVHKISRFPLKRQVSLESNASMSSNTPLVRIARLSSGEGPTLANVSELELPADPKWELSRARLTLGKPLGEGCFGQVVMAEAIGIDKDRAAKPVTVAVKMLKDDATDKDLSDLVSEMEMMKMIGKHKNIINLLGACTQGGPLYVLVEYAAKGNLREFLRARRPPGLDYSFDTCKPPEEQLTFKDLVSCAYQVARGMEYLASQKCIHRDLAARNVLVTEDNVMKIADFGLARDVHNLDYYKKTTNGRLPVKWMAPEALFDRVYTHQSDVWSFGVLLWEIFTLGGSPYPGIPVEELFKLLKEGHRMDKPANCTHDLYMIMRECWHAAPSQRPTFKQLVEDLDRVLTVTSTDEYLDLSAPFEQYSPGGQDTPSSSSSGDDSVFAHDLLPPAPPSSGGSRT
T8 sequence (P53779 whole entry): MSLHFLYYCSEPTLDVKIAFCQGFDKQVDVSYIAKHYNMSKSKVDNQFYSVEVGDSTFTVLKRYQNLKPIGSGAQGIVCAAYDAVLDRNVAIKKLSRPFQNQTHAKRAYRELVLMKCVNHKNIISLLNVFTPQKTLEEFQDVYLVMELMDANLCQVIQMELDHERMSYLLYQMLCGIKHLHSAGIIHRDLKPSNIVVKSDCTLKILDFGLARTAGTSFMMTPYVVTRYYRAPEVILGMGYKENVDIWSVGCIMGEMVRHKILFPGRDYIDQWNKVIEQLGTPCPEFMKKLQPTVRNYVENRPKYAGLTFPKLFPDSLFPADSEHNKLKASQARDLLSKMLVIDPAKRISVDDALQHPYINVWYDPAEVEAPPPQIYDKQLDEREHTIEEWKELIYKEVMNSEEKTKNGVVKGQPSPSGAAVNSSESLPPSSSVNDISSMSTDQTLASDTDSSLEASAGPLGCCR

Q: `CN1CCN(Cc2ccc(-c3cnc4[nH]cc(-c5ccoc5)c4c3)cc2)CC1` [Compound 7w, 3-(Furan-3-yl)-5-(4-((4-methylpiperazin-1-yl)methyl)phenyl)-1H-pyrrolo[2,3-b]pyridine] was tested. Which remaining activity at 0.1 µM [1] did it give?
A: The remaining activity at 0.1 µM was 99.3%.

Q: And the remaining activity at 0.1 µM [2]?
A: The remaining activity at 0.1 µM was 70.7%.

Q: And the remaining activity at 0.1 µM [3]?
A: The remaining activity at 0.1 µM was 93.1%.

Q: What about the remaining activity at 0.1 µM [4] of the same compound?
A: Its remaining activity at 0.1 µM is 32.8%.

Q: What about the remaining activity at 0.1 µM [5] of the same compound?
A: The remaining activity at 0.1 µM was 93.7%.

Q: And the remaining activity at 0.1 µM [6]?
A: Its remaining activity at 0.1 µM is 116%.

Q: And the remaining activity at 0.1 µM [7]?
A: The remaining activity at 0.1 µM was 83.8%.

Q: And the remaining activity at 0.1 µM [8]?
A: Its remaining activity at 0.1 µM is 113%.

Q: And the remaining activity at 0.1 µM [9]?
A: Its remaining activity at 0.1 µM is 112%.

Q: What about the remaining activity at 0.1 µM [10] of the same compound?
A: Its remaining activity at 0.1 µM is 25.8%.

Q: What about the remaining activity at 0.1 µM [11] of the same compound?
A: Its remaining activity at 0.1 µM is 110%.
